Data on 35 compounds can be found in US7582649B2, “Hydroxy alkyl substituted 1,3,8-triazaspiro[4.5]decan-4-one derivatives useful for the treatment of ORL-1 receptor mediated disorders” (Janssen Pharmaceutica, NV, priority 2002, dated 2009).

As usually defined, the Ki is a dissociation constant, usually derived from enzyme kinetics or from competition with a known ligand. Read a low Ki as tighter binding.

One assay deals with rats. To be noted: rat, in vivo, ip.
A further assay has as its target mu opioid receptor (Homo sapiens, UniProt P35372). In words: Filtration binding assay: mu opioid receptor.
Another assay has as its target kappa opioid receptor (Homo sapiens, UniProt P41145). Description: Filtration binding assay: kappa opioid receptor.
The next assay concerns the target delta opioid receptor (Homo sapiens, UniProt P41143). Description: Filtration binding assay: delta opioid receptor.

Counter-ions that a name gives are not always drawn. Like-named read-outs stand apart in the source and are kept apart here. A value given as a limit tells only on which side of the number the result lay.

Chain of delta opioid receptor (P41143 whole entry): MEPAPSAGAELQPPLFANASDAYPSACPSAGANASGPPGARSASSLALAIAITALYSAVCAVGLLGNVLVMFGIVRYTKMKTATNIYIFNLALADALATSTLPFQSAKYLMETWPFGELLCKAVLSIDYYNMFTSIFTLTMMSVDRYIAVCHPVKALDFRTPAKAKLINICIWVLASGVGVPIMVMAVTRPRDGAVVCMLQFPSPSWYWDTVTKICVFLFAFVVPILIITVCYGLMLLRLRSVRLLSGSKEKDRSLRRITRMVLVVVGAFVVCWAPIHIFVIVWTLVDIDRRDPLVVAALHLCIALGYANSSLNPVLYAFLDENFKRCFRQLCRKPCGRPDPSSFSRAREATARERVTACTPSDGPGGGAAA
Chain of mu opioid receptor (P35372 whole entry): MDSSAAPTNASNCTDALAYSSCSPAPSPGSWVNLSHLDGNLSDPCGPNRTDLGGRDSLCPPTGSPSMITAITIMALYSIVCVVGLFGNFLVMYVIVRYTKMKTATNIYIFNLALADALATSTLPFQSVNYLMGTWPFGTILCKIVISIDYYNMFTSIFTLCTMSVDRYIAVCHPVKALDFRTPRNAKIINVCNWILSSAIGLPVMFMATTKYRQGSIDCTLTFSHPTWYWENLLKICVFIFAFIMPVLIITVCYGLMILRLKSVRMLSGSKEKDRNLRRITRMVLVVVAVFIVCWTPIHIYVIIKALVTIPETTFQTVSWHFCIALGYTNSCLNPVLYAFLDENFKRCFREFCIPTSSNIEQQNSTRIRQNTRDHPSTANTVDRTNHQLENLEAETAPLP
Chain of kappa opioid receptor (P41145 whole entry): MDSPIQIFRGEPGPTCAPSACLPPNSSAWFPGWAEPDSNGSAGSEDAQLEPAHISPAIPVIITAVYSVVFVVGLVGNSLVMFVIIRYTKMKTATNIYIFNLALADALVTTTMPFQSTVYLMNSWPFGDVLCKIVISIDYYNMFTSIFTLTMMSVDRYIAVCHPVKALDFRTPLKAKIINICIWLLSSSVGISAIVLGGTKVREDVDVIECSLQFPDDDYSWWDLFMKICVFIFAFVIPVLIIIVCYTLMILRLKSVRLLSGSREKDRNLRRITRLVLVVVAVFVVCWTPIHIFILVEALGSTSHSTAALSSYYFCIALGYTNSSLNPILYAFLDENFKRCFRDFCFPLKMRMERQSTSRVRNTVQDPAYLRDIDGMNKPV

As to `CCCCN(Cc1ccccc1)C[C@H](O)CN1CN(c2ccc(F)cc2)C2(CCN(CC3CCCCCCC3)CC2)C1=O` [Compound #64, 3-[3-(Benzyl-butyl-amino)-2-(S)-hydroxy-propyl]-8-cyclooctylmethyl-1-(4-fluoro-phenyl)-1,3,8-triaza-spiro[4.5]decan-4-one], the “% Increase Mean No. of Shocks” value in the assay on rats (0.3 mg/kg) is on record as −10%; in the assay with rats (1 mg/kg), 25%; in the assay on rats (3 mg/kg) it was 96%; in the assay with rats (10 mg/kg), 150%; in the assay on rats (30 mg/kg) it was −26%.

For `NC[C@@H](O)CN1CN(c2ccccc2)C2(CCN([C@H]3CC[C@@H]4CCCc5cccc3c54)CC2)C1=O` [Compound #640, dihydrochloride], the Ki on mu opioid receptor is 120 nM; on kappa opioid receptor, 210 nM; at delta opioid receptor it was above 5000 nM.

As to `Cc1cccc2cccc(CN3CCC4(CC3)C(=O)N(C[C@H](O)CNCCCO)CN4c3ccc(F)cc3)c12` [Compound #651, 1-(4-Fluoro-phenyl)-3-[2-(R)-hydroxy-3-(3-hydroxy-propylamino)-propyl]-8-(8-methyl-naphthalen-1-ylmethyl)-1,3,8-triaza-spiro[4.5]decan-4-one], the inhibition constant (Ki) on mu opioid receptor was 670 nM; on kappa opioid receptor it was 310 nM; at delta opioid receptor it was above 5000 nM.

Take `CNCCCNC[C@@H](O)CN1CN(c2ccc(F)cc2)C2(CCN(Cc3cccc4cccc(C)c34)CC2)C1=O` [Compound #656, 1-(4-Fluoro-phenyl)-3-[2-(R)-hydroxy-3-(3-methylamino-propylamino)-propyl]-8-(8-methyl-naphthalen-1-ylmethyl)-1,3,8-triaza-spiro[4.5]decan-4-one]: the Ki at mu opioid receptor is 1520 nM; on kappa opioid receptor it was 420 nM; at delta opioid receptor, above 5000 nM.

On to `Cc1cccc2cccc(CN3CCC4(CC3)C(=O)N(C[C@H](O)CNCCCN(C)C)CN4c3ccc(F)cc3)c12` [Compound #666, 3-[3-(3-Dimethylamino-propylamino)-2-(R)-hydroxy-propyl]-1-(4-fluoro-phenyl)-8-(8-methyl-naphthalen-1-ylmethyl)-1,3,8-triaza-spiro[4.5]decan-4-one], for which the Ki is 2590 nM on mu opioid receptor, 140 nM on kappa opioid receptor and above 5000 nM on delta opioid receptor.

Consider `O=C1N(C[C@@H](O)CNCC23CC4CC(CC(C4)C2)C3)CN(c2ccc(F)cc2)C12CCN(CC1CCCCCCC1)CC2` [compound 17], for which the IC50 at mu opioid receptor was 650 nM; on kappa opioid receptor, 250 nM; on delta opioid receptor it was above 10000 nM.

`Cc1cccc(CNC[C@H](O)CN2CN(c3ccc(F)cc3)C3(CCN(CC4CCCCCCC4)CC3)C2=O)c1` [compound 18]: the IC50 at mu opioid receptor was 450 nM; at kappa opioid receptor it was 280 nM; on delta opioid receptor, above 10000 nM.

As for `O=C1N(C[C@@H](O)CNCc2cccc(Br)c2)CN(c2ccc(F)cc2)C12CCN(CC1CCCCCCC1)CC2` [compound 20], the IC50 is 1280 nM at mu opioid receptor, 440 nM at kappa opioid receptor and above 10000 nM on delta opioid receptor.

On to `COc1cccc(CNC[C@H](O)CN2CN(c3ccc(F)cc3)C3(CCN(CC4CCCCCCC4)CC3)C2=O)c1` [compound 35], for which the results for the IC50 on mu opioid receptor, on kappa opioid receptor and at delta opioid receptor were 820 nM, 660 nM and above 10000 nM, respectively.

Take `O=C1N(C[C@@H](O)CNCc2ccccn2)CN(c2ccc(F)cc2)C12CCN(CC1CCCCCCC1)CC2` [compound 39]: the IC50 is 8830 nM on mu opioid receptor, 3250 nM at kappa opioid receptor and above 10000 nM at delta opioid receptor.

For the compound `Cc1ccc(CNC[C@H](O)CN2CN(c3ccc(F)cc3)C3(CCN(CC4CCCCCCC4)CC3)C2=O)cc1` [compound 41], the IC50 at mu opioid receptor is 2100 nM; on kappa opioid receptor, 250 nM; on delta opioid receptor, above 10000 nM.

On to `CCCCN(Cc1ccccc1)C[C@H](O)CN1CN(c2ccccc2)C2(CCN(C3Cc4cccc5c4[C@@H](CCC5)C3)CC2)C1=O` (some centres unmarked) [compound 54], for which the results for the IC50 on mu opioid receptor, on kappa opioid receptor and at delta opioid receptor were 350 nM, 110 nM and above 10000 nM, respectively.

As to `CN(C)CCN(Cc1ccccc1)C[C@H](O)CN1CN(c2ccc(F)cc2)C2(CCN(CC3CCCCCCC3)CC2)C1=O` [compound 63], the IC50 at mu opioid receptor turned out to be 3430 nM; on kappa opioid receptor, 230 nM; at delta opioid receptor, 8780 nM.

Turning to `CC1CN(C[C@H](O)CN2CN(c3ccc(F)cc3)C3(CCN(CC4CCCCCCC4)CC3)C2=O)CC(C)O1` (some centres unmarked) [compound 75], the IC50 is 980 nM on mu opioid receptor, 300 nM on kappa opioid receptor and above 10000 nM at delta opioid receptor.

As for `CC(=O)NC(CSC[C@H](O)CN1CN(c2ccc(F)cc2)C2(CCN(CC3CCCCCCC3)CC2)C1=O)C(=O)O` (some centres unmarked) [compound 100], the IC50 on mu opioid receptor (mean where tested more than once, read-out: Mu IC50) was 230 nM; on kappa opioid receptor (mean where tested more than once, read-out: Kappa IC50), 280 nM; on delta opioid receptor (mean where tested more than once, read-out: Delta IC50) it was above 10000 nM.

For `CC(C)(C)N(Cc1ccccc1)C[C@H](O)CN1CN(c2ccc(F)cc2)C2(CCN(Cc3cccc4ccccc34)CC2)C1=O` [compound 250], the results for the IC50 on mu opioid receptor, at kappa opioid receptor and on delta opioid receptor were 1200 nM, 380 nM and above 10000 nM, respectively.

Turning to `O=C1N(C[C@@H](O)CNCCN2CCOCC2)CN(c2ccc(F)cc2)C12CCN(Cc1cccc3ccccc13)CC2` [compound 251], the IC50 is 1580 nM on mu opioid receptor, 450 nM on kappa opioid receptor and above 10000 nM at delta opioid receptor.

As for `CCN(Cc1ccc(C)cc1)C[C@H](O)CN1CN(c2ccc(F)cc2)C2(CCN(Cc3cccc4ccccc34)CC2)C1=O` [compound 252], the IC50 at mu opioid receptor is 3700 nM; at kappa opioid receptor it was 1340 nM; on delta opioid receptor, above 10000 nM.

On to `COc1ccc(CCNC[C@H](O)CN2CN(c3ccc(F)cc3)C3(CCN(Cc4cccc5ccccc45)CC3)C2=O)cc1OC` [compound 253], for which the figures for the IC50 at mu opioid receptor, on kappa opioid receptor and on delta opioid receptor were 760 nM, 400 nM and 2160 nM, respectively.

Take `O=C1N(C[C@@H](O)CNCCc2ccc3c(c2)OCO3)CN(c2ccc(F)cc2)C12CCN(Cc1cccc3ccccc13)CC2` [compound 254]: the IC50 was 2830 nM at mu opioid receptor, 800 nM at kappa opioid receptor and above 10000 nM at delta opioid receptor.

Take `COc1cc(CCNC[C@H](O)CN2CN(c3ccc(F)cc3)C3(CCN(Cc4cccc5ccccc45)CC3)C2=O)c([N+](=O)[O-])cc1OC` [compound 255]: the IC50 was 2490 nM at mu opioid receptor, 620 nM at kappa opioid receptor and above 10000 nM on delta opioid receptor.

With `COc1ccc(CCN(C)C[C@H](O)CN2CN(c3ccc(F)cc3)C3(CCN(Cc4cccc5ccccc45)CC3)C2=O)cc1OC` [compound 256], the IC50 is 5450 nM on mu opioid receptor, 1180 nM at kappa opioid receptor and above 10000 nM at delta opioid receptor.

For `COc1ccc(CCNC[C@H](O)CN2CN(c3ccc(F)cc3)C3(CCN(Cc4ccc5ccccc5c4)CC3)C2=O)cc1OC` [compound 261], the results for the IC50 on mu opioid receptor, on kappa opioid receptor and on delta opioid receptor were 1560 nM, 270 nM and above 10000 nM, respectively.

In the case of `COc1ccc(CNC[C@H](O)CN2CN(c3ccc(F)cc3)C3(CCN(Cc4cccc5cccc(C)c45)CC3)C2=O)cc1` [compound 398], the IC50 is above 10000 nM on mu opioid receptor, 250 nM on kappa opioid receptor and above 10000 nM on delta opioid receptor.

For the compound `O=C1N(C[C@H]2CO2)CN(c2ccc(F)cc2)C12CCN(Cc1ccc3ccccc3c1)CC2` [compound 542], the figures for the IC50 on mu opioid receptor, at kappa opioid receptor and on delta opioid receptor were 160 nM, 530 nM and above 10000 nM, respectively.

`CC1(C)[C@H]2CC=C(CN3CCC4(CC3)C(=O)N(C[C@@H](O)CN)CN4c3ccc(F)cc3)[C@@H]1C2` [compound 619]: the figures for the Ki on mu opioid receptor, on kappa opioid receptor and at delta opioid receptor were 140 nM, 170 nM and above 5000 nM, respectively.

With `COCCCNC[C@H](O)CN1CN(c2ccc(F)cc2)C2(CCN(Cc3cccc4cccc(C)c34)CC2)C1=O` [compound 650], the Ki was 740 nM on mu opioid receptor, 460 nM at kappa opioid receptor and above 5000 nM on delta opioid receptor.

For `CNCCCNC[C@H](O)CN1CN(c2ccccc2)C2(CCN([C@H]3CC[C@@H]4CCCc5cccc3c54)CC2)C1=O` [compound 658], the Ki at mu opioid receptor is 170 nM; at kappa opioid receptor, 130 nM; on delta opioid receptor it was above 5000 nM.

For `Cc1cccc2cccc(CN3CCC4(CC3)C(=O)N(C[C@H](O)CNCCCNC(=O)OC(C)(C)C)CN4c3ccc(F)cc3)c12` [compound 665], the figures for the Ki at mu opioid receptor, at kappa opioid receptor and on delta opioid receptor were 2710 nM, 290 nM and above 5000 nM, respectively.

Turning to `Cc1cccc2cccc(CN3CCC4(CC3)C(=O)N(C[C@H](O)CNCCN(C)C(=O)OC(C)(C)C)CN4c3ccc(F)cc3)c12` [compound 667], the inhibition constant Ki on mu opioid receptor is 770 nM; at kappa opioid receptor, 450 nM; at delta opioid receptor, 4140 nM.

With `O=C1N(C[C@H](O)CN2C(CO)C(O)C(O)C2CO)CN(c2ccc(F)cc2)C12CCN(C1CCCCCCC1)CC2` (some centres unmarked) [compound 688], the inhibition constant Ki at mu opioid receptor was 110 nM; at kappa opioid receptor it was 160 nM; at delta opioid receptor it was above 5000 nM.

`Cc1cccc2cccc(CN3CCC4(CC3)C(=O)N(C[C@H](O)CN3CCCC3)CN4c3ccc(F)cc3)c12` [compound 705]: the inhibition constant (Ki) is 1500 nM on mu opioid receptor, 710 nM at kappa opioid receptor and above 5000 nM at delta opioid receptor.

As to `Cc1cccc2cccc(CN3CCC4(CC3)C(=O)N(C[C@H](O)CN3CC[C@@H](NC(=O)OC(C)(C)C)C3)CN4c3ccc(F)cc3)c12` [compound 710], the Ki at mu opioid receptor is 1090 nM; at kappa opioid receptor, 360 nM; at delta opioid receptor, above 5000 nM.

With `Cc1cccc2cccc(CN3CCC4(CC3)C(=O)N(CC(O)CN3CCC(N(C)C(=O)OC(C)(C)C)C3)CN4c3ccc(F)cc3)c12` (centres unmarked) [compound 721], the Ki is 590 nM at mu opioid receptor, 170 nM on kappa opioid receptor and above 5000 nM on delta opioid receptor.

On to `CC1(C)[C@H]2CC=C(CN3CCC4(CC3)C(=O)N(C[C@@H]3CO3)CN4c3ccc(F)cc3)[C@@H]1C2` [compound 727], for which the Ki on mu opioid receptor was 120 nM; at kappa opioid receptor it was 210 nM; at delta opioid receptor it was above 5000 nM.
